Where a name gives a salt, the structure may show the parent alone.

Experiment [1] addresses presynaptic dopamine receptor. Put plainly: 3H-ADTN presynaptic dopamine receptor binding assay (displacement of 3H-ADTN from calf caudate nucleus membranes). The conditions noted are these: inhibition of specific binding of 0.2 nM 3H-ADTN by 50%, 60 min, 25° C. As to the method:
The presynaptic dopamine receptor binding properties indicative of the presynaptic dopamine receptor regulatory, e.g. agonistic activity, of the compounds of the invention can be determined in the dopamine binding assay in vitro by the following method involving the displacement of the dopamine agonist 2-amino-6,7-dihydroxy-1,2,3,4-tetrahydronaphthalene (^3 H-ADTN) from membranes of calf-caudate nucleus.
In the binding assay, triplicate 2 ml samples (equivalent to 5 mg/ml of brain tissue) of the calf brain caudate nucleus membrane suspension are incubated for 60 minutes at 25° C. with 0.2 nM ^3 H-ADTN without or in the presence of various concentrations of test compound in solvent. The reaction is terminated by filtering with 5 ml of cold 50 mM Tris-HCl buffer pH 7.7. The filters are placed in scintillation vials with 5 ml of scintillation solution, disrupted by vigorous mechanical shaking for 90 minutes, and counted for radioactivity.
The IC50 values which represent the concentration of test compounds required to inhibit the specific binding of 0.2 nM ^3 H-ADTN by 50% are determined graphically.

The test system of experiment [2] is presynaptic dopamine receptor (dopamine autoreceptor). Put plainly: GBL model in the rat: in-vivo presynaptic dopamine agonist (dopamine autoreceptor agonist) activity, inhibition of GBL-induced DOPA accumulation. The conditions noted are these: dose inhibiting DOPA accumulation by 50%. As for the experimental part:
The in-vivo presynaptic dopamine agonist activity (also called dopamine autoreceptor agonist activity) is determined in the rat gamma-butyrolactone (GBL) model by a modification of the procedure described by Walters and Roth, Naunyn Schmiedeberg's Arch. Pharmacol. 296, 5 (1976). In this model, a presynaptic dopamine agonist inhibits the GBL-induced accumulation of the dopamine precursor DOPA in the brain after pretreatment with 3-hydroxybenzylhydrazine (NDS-1015), a DOPA decarboxylase inhibitor.
Test compounds are dissolved in 0.9% saline, with sodium metabisulfite to prevent oxidation, if required. Animals are treated with i.p. injections of solutions of test compounds or saline, followed by gamma-butyrolactone (GBL, 750 mg/kg i.p.) or saline for control animals 15 minutes later, and finally with NSD-1015 (100 mg/kg i.p.) 5 minutes after the administration of GBL. Thirty minutes after the administration of NSD-1015, animals are sacrificed, brains are removed, and striatae are isolated, then frozen at -70° C. until deproteinization, extraction and analysis. The ED50 (dose at which the DOPA accumulation is inhibited by 50%) values are determined by plotting the percent inhibition of DOPA accumulation versus log10 of the dose of test compound administered. The same method is also applicable to oral administration of the test compounds.

For the compound `CCCN(CCC)C1CSc2sccc2C1` (stereo not drawn) [N,N-dipropyl-5,6-dihydro-4H-thieno[2,3-b]thiopyran-5-amine hydrochloride], in experiment [1], the IC50 is about 150 nM.
With `CCCN(CCC)C1CSc2sccc2C1` (stereo not drawn) [5-dipropylamino-5,6-dihydro-4H-thieno[2,3-b]thiopyran], the “ED50 in the GBL model” value is “about 2.6 mg/kg” in experiment [2] (i.p.) and about 5.6 mg/kg in experiment [2] (p.o.).

The values above are taken from patent publication US4816474A, “Amino substituted thienothiopyran derivatives, composition containing them, and method of using them to stimulate presynaptic dopamine receptors” (Ciba-Geigy Corporation, priority 1987, dated 1989).
